Experimental data taken from publication PMC11976424 (Journal of Advanced Research, 2024).

Tests used:
[1] = target: AMPKα1β1γ1 (AMP-activated protein kinase) (Homo sapiens, UniProt Q13131); assay: SPR; format: binding
[2] = target: AMPKα2β1γ1 (AMP-activated protein kinase) (Homo sapiens, UniProt P54619+P54646+Q9Y478); assay: SPR; format: binding
Chain of AMPKα2β1γ1 (AMP-activated protein kinase) (P54646 whole entry): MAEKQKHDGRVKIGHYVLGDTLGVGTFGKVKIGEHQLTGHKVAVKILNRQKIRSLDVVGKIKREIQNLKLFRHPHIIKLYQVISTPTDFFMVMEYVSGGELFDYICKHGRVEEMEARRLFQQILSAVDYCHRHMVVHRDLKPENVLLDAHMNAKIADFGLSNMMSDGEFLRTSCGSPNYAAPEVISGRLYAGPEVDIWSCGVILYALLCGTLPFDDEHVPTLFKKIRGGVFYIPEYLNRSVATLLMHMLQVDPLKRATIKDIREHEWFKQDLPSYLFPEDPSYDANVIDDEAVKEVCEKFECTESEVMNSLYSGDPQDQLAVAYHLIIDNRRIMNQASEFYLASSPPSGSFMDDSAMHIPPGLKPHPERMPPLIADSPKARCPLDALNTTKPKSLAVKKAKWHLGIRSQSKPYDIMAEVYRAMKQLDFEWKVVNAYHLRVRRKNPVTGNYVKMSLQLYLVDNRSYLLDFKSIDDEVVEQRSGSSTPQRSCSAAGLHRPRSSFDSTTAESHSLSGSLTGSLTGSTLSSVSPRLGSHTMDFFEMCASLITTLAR
Chain of AMPKα2β1γ1 (AMP-activated protein kinase) (Q9Y478 2-270 partner): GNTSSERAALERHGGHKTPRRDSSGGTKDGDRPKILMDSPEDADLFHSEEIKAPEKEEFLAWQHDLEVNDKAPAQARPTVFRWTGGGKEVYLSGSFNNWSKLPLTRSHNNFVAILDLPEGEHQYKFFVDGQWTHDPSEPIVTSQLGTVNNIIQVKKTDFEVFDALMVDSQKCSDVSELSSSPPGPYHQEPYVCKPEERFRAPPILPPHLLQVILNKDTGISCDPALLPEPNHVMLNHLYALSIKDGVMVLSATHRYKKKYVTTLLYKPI
Chain of AMPKα2β1γ1 (AMP-activated protein kinase) (P54619 whole entry partner): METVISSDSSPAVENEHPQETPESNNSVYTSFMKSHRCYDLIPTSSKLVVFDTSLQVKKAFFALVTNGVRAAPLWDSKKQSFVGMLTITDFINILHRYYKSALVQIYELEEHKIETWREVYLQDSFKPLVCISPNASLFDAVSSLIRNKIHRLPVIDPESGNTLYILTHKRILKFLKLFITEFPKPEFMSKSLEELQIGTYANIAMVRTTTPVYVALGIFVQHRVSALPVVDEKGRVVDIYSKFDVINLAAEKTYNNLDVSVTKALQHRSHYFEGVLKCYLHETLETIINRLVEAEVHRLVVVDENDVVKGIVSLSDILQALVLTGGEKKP

Chain of AMPKα1β1γ1 (AMP-activated protein kinase) (Q13131 whole entry): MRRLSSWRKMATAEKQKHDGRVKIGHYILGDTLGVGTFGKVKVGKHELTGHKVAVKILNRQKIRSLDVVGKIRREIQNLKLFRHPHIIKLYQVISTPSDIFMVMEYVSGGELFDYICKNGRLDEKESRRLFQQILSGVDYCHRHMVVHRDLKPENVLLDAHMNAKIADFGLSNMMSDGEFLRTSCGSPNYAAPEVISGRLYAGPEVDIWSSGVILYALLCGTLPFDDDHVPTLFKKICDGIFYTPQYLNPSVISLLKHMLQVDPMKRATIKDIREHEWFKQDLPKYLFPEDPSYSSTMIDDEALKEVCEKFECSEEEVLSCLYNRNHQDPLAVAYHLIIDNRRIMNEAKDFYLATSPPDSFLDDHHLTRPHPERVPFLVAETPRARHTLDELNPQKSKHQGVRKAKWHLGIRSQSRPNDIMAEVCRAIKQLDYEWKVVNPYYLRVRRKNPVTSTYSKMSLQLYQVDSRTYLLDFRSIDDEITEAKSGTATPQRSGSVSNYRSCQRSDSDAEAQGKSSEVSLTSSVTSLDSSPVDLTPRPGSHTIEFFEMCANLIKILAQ
Chain of AMPKα1β1γ1 (AMP-activated protein kinase) (Q9Y478 2-270 partner): as the sequence (Q9Y478 2-270 partner) above
Chain of AMPKα1β1γ1 (AMP-activated protein kinase) (P54619 whole entry partner): as the sequence (P54619 whole entry partner) above

- Kd [1]: 3.77 µM
- Kd [2]: 4.67 µM
Structure (SMILES): OC[C@H]1O[C@@H](Oc2c(O)cc(O)cc2/C=C/c2ccc(O)cc2)[C@H](O)[C@@H](O)[C@@H]1O [TSG, 2,3,5,4′-tetrahydroxystilbene-2-O-β-D-glucoside]
